According to patent US20220362227A1, “COMPOSITION OF PHYTONUTRIENTS FOR DIABETES MANAGEMENT” (ROSEMAN UNIVERSITY OF HEALTH SCIENCES, priority 2021, published 2022):

What was measured:
[1] = tested on: primary human preadipocytes; assay: Glucose uptake assay (2-NBDG, flow cytometry); assay type: cell-based; details: together with 100 nM insulin, compared to insulin alone, 30 minutes
Description: The glucose uptake assay used 2-NBDG, a fluorescently-labeled deoxyglucose analog, as a probe for the detection of glucose taken up by human primary preadipocytes. Flow cytometry was used to detect 2-NBDG uptake in single preadipocytes.
Glucose Uptake Assays. Primary human preadipocytes grown to 70% confluence in growth media, washed with phosphate buffered saline, and replaced with glucose-free DMEM media. Following 2 hours of incubation in glucose-free DMEM media, preadipocytes were treated with 100 μg/ml of 2-NDBG fluorescent glucose analog and insulin (100 nM) or phytonutrients (EC50) for 30 minutes. Preadipocytes were collected and analyzed using the Acuri C6 flow cytometer (BD Biosciences, San Jose, Calif.) and the 485 nm excitation and 535 nm emission filters.

[2] = tested on: primary human preadipocytes; assay: Adipogenesis assay (adipogenic biomarkers, Oil Red O staining); assay type: cell-based; details: for EC50: read-out: EC50 (anti-adipogenic phytonutrients)
Description: Adipogenesis Assays. Primary human preadipocytes were grown to confluence in growth media. At 2 days post-confluence, growth media were aspirated off the culture dishes and complete differentiation media were added. Complete differentiation media comprise […] with 18.5 mM glucose, HEPES (15 mM), NaHCO3 (25 mM), 100 units/ml penicillin, 100 μg/ml streptomycin, d-biotin (33 μM), pantothenate (17 μM), dexamethasone (100 nM), insulin (100 nM), rosiglitazone (1 μM), IBMX (0.5 mM), triiodothyronine (T3, 2 nM), and transferrin (10 μg/ml). On day three post-differentiation, complete differentiation media were replenished. On day seventh post-differentiation, complete differentiation media were replaced with maintenance media. Maintenance media comprise […], 100 units/ml penicillin, 100 μg/ml streptomycin, HEPES (15 mM), NaHCO3 (25 mM), d-biotin, pantothenate, insulin (10 nM), and dexamethasone (10 nM). Maintenance media were replenished on days tenth post-differentiation. Complete differentiation of preadipocytes into adipocytes were achieved on day fourteenth post-differentiation. To screen for anti-adipogenic phytonutrients, individual phytonutrients were mixed in complete differentiation media from day 0 to day 6th post-differentiation. Phytonutrients were removed together with complete differentiation media on day 7th post-differentiation following the replacement with maintenance media. Anti-adipogenic phytonutrients were identified based on their ability to: (1) suppress the expression of adipogenic biomarkers using proteomic assays of total cell extracts collected on day 6th post-differentiation, and (2) suppress intracellular lipid droplet accumulation using Oil Red O staining assays on day 14th post-differentiation.

Akt2 = assay: Screening for insulin-sensitizing phytonutrients: cIEF immunoassays of Akt2 phosphorylation; assay type: cell-based, human; details: for increase of insulin-stimulated pAkt2 (Ser473) phosphorylation: together with 100 nM insulin, compared to insulin alone, cIEF; for Akt2 phosphorylation on cIEF electropherogram: treatment alone, 30 minutes, versus untreated control; for EC50: half-maximal effective concentration, primary human preadipocytes
From the text: (§1) Mapping Akt Isoforms Using Capillary Isoelectric Focusing (cIEF) Immunoassays. cIEF immunoassays separate proteins in total cell extracts (TCEs) by their isoelectric points (pIs) in nano-capillaries. The positions of the proteins are stabilized via UV-irradiated crosslinking of proteins to the sidewalls of the capillaries. A primary antibody that recognizes a specific protein of interest is introduced to individual capillaries. Then a secondary antibody linked to horseradish peroxidase is introduced. Following the introduction of the chemiluminescent substrates, the distribution of the isoforms of a protein is detected and presented graphically as electropherograms of intensity versus isoelectric points. Phosphorylation and acetylation of a protein generally leads to shifts toward lower pI values. In contrast, glycosylation of a protein generally leads to a shift toward higher pI values.
(§2) Human Primary Preadipocytes. Primary human preadipocytes were isolated from omental adipose tissues overweight and diabetic donors who were undergoing elective surgery using a previously published protocol. Primary human preadipocytes were maintained in growth media comprising Minimum Essential Medium a supplemented with 10% fetal bovine serum, 100 units/ml penicillin, and 100 μg/ml streptomycin.
(§3) Screening for Insulin-Sensitizing Phytonutrients. Primary human preadipocytes were treated for 30 minutes with 100 nM insulin (Humulin R, Eli Lilly, Indianapolis, Ind.), individual phytonutrients (Table 1 & Table 2), or combinations of insulin and phytonutrients. Total cell extracts (TCE) were collected and subjected to nanofluidic proteomic analysis including capillary isoelectric focusing (cIEF) immunoassays and capillary Western (CW) immunoassays.
(§4) Preparation of Total Cell Extracts. Approximately one million cells were incubated on ice for 10 minutes with 60 μl of lysis buffer (cat. no. 040-764, ProteinSimple, Santa Clara, Calif., USA), sonicated 4 times for 5 seconds each, mixed by rotation for 2 hours at 4° C., and centrifuged at 12,000 rpm in an Eppendorf 5430R microfuge for 20 minutes at 4° C. The supernatant was collected as the cell lysate. The total protein concentration in the cell lysate was determined with a Bradford protein assay and adjusted to a final concentration of 0.3 μg/μl with separation gradients (cat. no. Premix G2, pH 5-8, ProteinSimple, Santa Clara, Calif.) for charge-based cIEF immunoassays or to 0.4 μg/μl with denaturing buffers (cat. no. PS-ST01EZ or PS-ST03EZ, ProteinSimple) for size-based Western immunoassays.
(§5) Capillary Isoelectric Focusing Immunoassays. Cell lysates in separation gradients were loaded into 384-well assay plates (cat. no. 040-663, ProteinSimple) preloaded with primary and secondary antibodies and chemiluminescent substrates. Charge-based protein separation and detection in individual capillaries were performed using the default protocols of the NanoPro 1000 system (ProteinSimple). Hsp70 was used as the loading control. All cIEF immunoassays were performed in triplicate for each protein, and duplicate experiments were performed for each treatment condition, producing six repeated measurements per protein.

Akt3 = assay: cIEF immunoassays of Akt3; assay type: cell-based, human; details: for Akt3 cIEF electropherogram: treatment alone, 30 minutes, versus untreated
From the text: as §1, §3
as §4, with “The supernatant was collected as the cell lysate.” left out, “immunoassays. […]” for “immunoassays.”

Akt1 = assay: cIEF immunoassays of Akt1; assay type: cell-based, human; details: for Akt1 cIEF electropherogram: treatment alone, 30 minutes, versus untreated
From the text: as §1, §3
as §4, with “The supernatant was collected as the cell lysate.” left out, “immunoassays. […]” for “immunoassays.”

Akt = assay: Capillary Western and cIEF immunoassays of pAkt (Thr308), pAkt (Thr450), pAkt (Ser473); assay type: cell-based, human; details: for increase of pAkt (Ser473) phosphorylation / increase of pAkt (Thr308) phosphorylation / increase of pAkt (Thr450) phosphorylation: 30 minutes treatment, versus untreated control, capillary Western densitometry
Description: as §2, §3, §4, §5
Capillary Western Immunoassays. Cell lysates in denaturing buffers were denatured at 95° C. for 5 minutes, and then transferred to assay plates (cat. no. SM-W004 or SM-W008, ProteinSimple) preloaded with blocking reagents, wash buffer, primary and secondary antibodies, and chemiluminescent substrates. Sized-based protein separation and detection in capillaries were performed using the default protocols of the Jess system (ProteinSimple). β-Actin was used as loading controls. All capillary Western immunoassays were performed in triplicate for each protein, and duplicate experiments were performed for each treatment condition, producing six repeated measurements per protein.

[3] = half-maximal effective concentration, primary human preadipocytes
[4] = together with insulin, compared to insulin alone

Compound: COc1ccc2cc3[n+](cc2c1OC)CCc1cc2c(cc1-3)OCO2 [Berberine]
- increase of insulin-stimulated glucose uptake by preadipocytes [1]: no effect
- inhibition of adipogenesis ([2]; differentiating primary human preadipocytes): strong inhibitor of adipogenesis
- EC50 [2, 3]: 10 µM
- increase of insulin-stimulated pAkt2 (Ser473) phosphorylation (Akt2): no effect
- Akt2 phosphorylation on cIEF electropherogram (Akt2): no effect

Compound: O=CC=Cc1ccccc1 [Cinnamaldehyde]
- phosphorylation of Akt3 on cIEF electropherogram (Akt3; [4]): no observable effect
- Akt3 cIEF electropherogram (Akt3): no observable effect
- phosphorylation of Akt1 on cIEF electropherogram (Akt1; [4]): no observable effect
- Akt1 cIEF electropherogram (Akt1): no observable effect
- increase of insulin-stimulated glucose uptake by preadipocytes [1]: approximately 1.6 folds
- EC50 (Akt2): 40 µM
- Akt2 phosphorylation on cIEF electropherogram (Akt2): new peak at pI 5.41
- increase of pAkt (Ser473) phosphorylation (Akt): no effect
- increase of pAkt (Thr308) phosphorylation (Akt): no effect
- increase of pAkt (Thr450) phosphorylation (Akt): 1.6 folds
- increase of insulin-stimulated pAkt (Ser473) phosphorylation (Akt; together with 100 nM insulin, compared to insulin alone, cIEF and CW immunoassays): ~4 folds

Compound: COc1cc(/C=C/C(=O)CC(=O)/C=C/c2ccc(O)c(OC)c2)ccc1O [Curcumin]
- increase of insulin-stimulated glucose uptake by preadipocytes [1]: ~1.7 folds
- EC50 (Akt2): 20 µM
- increase of insulin-stimulated pAkt2 (Ser473) phosphorylation (Akt2): approximately 4 folds
- Akt2 phosphorylation on cIEF electropherogram (Akt2): new peak at pI 5.41

Compound: O=C(O[C@@H]1Cc2c(O)cc(O)cc2O[C@@H]1c1cc(O)c(O)c(O)c1)c1cc(O)c(O)c(O)c1 [Epigallocatechin Gallate]
- EC50 [2, 3]: 20 µM

Compound: O=c1c(O)c(-c2ccc(O)c(O)c2)oc2cc(O)ccc12 [Fisetin]
- EC50 [2, 3]: 50 µM

Compound: COc1ccc([C@@H]2CC(=O)c3c(O)cc(O[C@@H]4O[C@H](CO[C@@H]5O[C@@H](C)[C@H](O)[C@@H](O)[C@H]5O)[C@@H](O)[C@H](O)[C@H]4O)cc3O2)cc1O [Hesperidin]
- EC50 [2, 3]: 20 µM

Compound: OCc1c[nH]c2ccccc12 [Indole-3-Carbinol]
- EC50 [2, 3]: 20 µM

Compound: O=c1cc(-c2ccc(O)c(O)c2)oc2cc(O)cc(O)c12 [Luteolin]
- EC50 [2, 3]: 20 µM

Compound: O=c1c(O)c(-c2ccc(O)c(O)c2)oc2cc(O)cc(O)c12 [Quercetin]
- EC50 [2, 3]: 25 µM

Compound: Oc1ccc(C=Cc2cc(O)cc(O)c2)cc1 [Resveratrol]
- EC50 [2, 3]: 40 µM

Compound: Fucoidan
- EC50 (anti-adipogenic phytonutrients) [2, 3]: 100 mg/L

Compound: insulin: 100 nM insulin (Humulin R, Eli Lilly) [reference compound]
- Akt3 cIEF electropherogram (Akt3): two new peaks at pI 5.03 and pI 5.12
- Akt1 cIEF electropherogram (Akt1): nearly identical
- Akt2 phosphorylation on cIEF electropherogram (Akt2): two new peaks at pI 5.20 and pI 5.30
- increase of pAkt (Ser473) phosphorylation (Akt): ~5.7 folds
- increase of pAkt (Thr308) phosphorylation (Akt): approximately 3 folds
- increase of pAkt (Thr450) phosphorylation (Akt): ~1.6 folds
